Patent US4251543A, “2-(p-Prenylphenyl)propionic acid” (priority 1978, dated 1981)

Key:
rat paw edema = test: Anti-inflammatory activity, rat paw edema (carrageenin); type: in vivo, rat (male Wistar); settings: p.o., three hours after injection of carrageenin
Experimental: (§1) Anti-inflammatory activity was evaluated by the method of rat paw edema(Winter et al., J. Pharmacol. Exp. Ther., 141, 369(1963)). Six male Wistar strain rats were used in each group and a volume of the each paw was measured three hours after injection of carrageenin.

acetic acid writhing = test: Analgesic activity, acetic acid writhing test; type: in vivo, mouse (male ddY); settings: p.o.
From the text: Male ddY strain mice in groups of ten each were used for the evaluation of analgesic activity by acetic acid writhing test(Koster et al., Federation Proc., 18, 412(1959)).

gastric lesions = test: Gastric lesions after oral administration; type: in vivo, rat (male Wistar); settings: 100 + 200 mg/Kg, p.o.; for lesion index (sum of areas damaged): mean ± S.E.
Experimental: Anti-inflammatory activity was evaluated by the method of rat paw edema(Winter et al., J. Pharmacol. Exp. Ther., 141, 369(1963)). Six male Wistar strain rats were used in each group and a volume of the each paw was measured three hours after injection of carrageenin. […] The gastric lesions induced were expressed as incidence(number of rats with gastric lesions/number of the rats) and lesion index(sum of areas damaged). The results are shown in Table 3, wherein the values of lesion index and liver weight are mean ± S.E.

liver weight = test: Liver weight per 100 g of the test rat; type: in vivo, rat (male Wistar); settings: 100 + 200 mg/Kg, p.o., mean ± S.E.
Experimental: as §1
Immediately after the completion of the test described in Experiment 1, the test compound was orally administered to the test rats in a dose twice the dose administered in Experiment 1, and fasting was continued for 18 hours prior to autopsy and evaluation of gastric lesions and liver weight per 100 g of the test rat. The gastric lesions induced were expressed as incidence(number of rats with gastric lesions/number of the rats) and lesion index(sum of areas damaged). The results are shown in Table 3, wherein the values of lesion index and liver weight are mean ± S.E.

[1] = Changes of body weight, repeated oral administration; type: in vivo, rat (male Wister); settings: for body weight before treatment: before treatment (baseline); for body weight before treatment / body weight after 5 days / body weight after 10 days: mean ± S.E.; for body weight after 5 days / body weight after 10 days: orally
Experimental: (§2) The test compound was suspended in 0.4% CMC solution in an appropriate concentration, and was administered orally once a day at the definite dose (50, 100 or 200 mg/Kg) in each 10 male Wister rats. Additional 10 control rats were received an equivalent volume of the vehicle. […] In those tables, the values of body weight, red blood cell and hemoglobin are mean ± S.E.

[2] = test system: red blood cell and hemoglobin; test: Hematological findings after 10 days administration; type: in vivo, rat (male Wister); settings: for hemoglobin / red blood cell: p.o., day one after 10 days administration, mean ± S.E.; for effect on hemoglobin count (in words) / effect on red blood cell count (in words): 50, 100 or 200 mg/Kg orally once a day, 10 days
Experimental: as §2

SMILES	inhibition (%) (rat paw edema; 50 mg/Kg)	inhibition (%) (rat paw edema; 100 mg/Kg)	inhibition (%) (rat paw edema; 200 mg/Kg)	inhibition (%) (acetic acid writhing; 50 mg/Kg)	inhibition (%) (acetic acid writhing; 100 mg/Kg)	inhibition (%) (acetic acid writhing; 200 mg/Kg)	lesion index (sum of areas damaged) (gastric lesions)	liver weight (liver weight)	effect on hemoglobin count (in words) [2]	effect on red blood cell count (in words) [2]	further results
CC(C)=CCc1ccc(C(C)C(=O)O)cc1 (stereo not shown) [TA-060, 2-[p-(3-methyl-2-butenyl)phenyl]propionic acid]	35.9%	46.5%	52.1%	37.3%	40.0%	62.7%	0 mm^2	3.56 ± 0.04 g	no effect	no effect	gastric lesion incidence (number of rats with gastric lesions/number of the rats) (gastric lesions; fasting 18 hours prior to autopsy): 0/12; body weight before treatment ([1]; 50 mg/Kg/day group): 211.5 ± 3.6 gram; body weight after 5 days ([1]; 50 mg/Kg/day): 224.6 ± 3.6 gram; body weight after 10 days ([1]; 50 mg/Kg/day): 239.7 ± 3.2 gram; body weight before treatment ([1]; 100 mg/Kg/day group): 210.0 ± 2.5 gram; body weight after 5 days ([1]; 100 mg/Kg/day): 226.4 ± 2.8 gram; body weight after 10 days ([1]; 100 mg/Kg/day): 238.5 ± 2.3 gram; body weight before treatment ([1]; 200 mg/Kg/day group): 211.7 ± 3.1 gram; body weight after 10 days ([1]; 200 mg/Kg/day, **p <0.001): 238.3 ± 5.1 gram; body weight after 5 days ([1]; 200 mg/Kg/day, *p <0.01): 221.9 ± 4.6 gram; effect on body weight gain (in words) ([1]; 50, 100 or 200 mg/Kg orally once a day, 10 days): no effect; hemoglobin ([2]; 50 mg/Kg): 15.2 ± 0.1 g/dL; red blood cell ([2]; 50 mg/Kg, *p <0.05): 864.2 ± 20.2 × 10^4 /mm^3; hemoglobin ([2]; 100 mg/Kg, ***p <0.001): 15.1 ± 0.2 g/dL; red blood cell ([2]; 100 mg/Kg, **p <0.01): 860.8 ± 9.5 × 10^4 /mm^3; hemoglobin ([2]; 200 mg/Kg, ***p <0.001): 15.0 ± 0.2 g/dL; red blood cell ([2]; 200 mg/Kg, **p <0.01): 857.9 ± 15.2 × 10^4 /mm^3
CC(C)Cc1ccc(C(C)C(=O)O)cc1 (stereo not shown) [ibuprofen, reference compound]	37.9%	49.5%	52.9%	18.6%	37.5%	53.8%	–	–	significant decrease	significant decrease	–
CCCCC1C(=O)N(c2ccccc2)N(c2ccccc2)C1=O [phenylbutazone, reference compound]	–	–	–	–	–	–	4.59 ± 1.35 mm^2	4.23 ± 0.09 g	–	–	–
